# Reference: patent publication US8198273B2, “Compounds and methods for kinase modulation, and indications therefor” (Plexxikon Inc., priority 2009, dated 2012)
# pIC50: −log10 of the molar value.
# How the values were obtained:
# [1] = target: CYP2C9 (Homo sapiens, UniProt P11712); assay: CYP2C9 inhibition (fluorescent substrate); assay type: in vitro ADME; conditions: CYP2C9, MFC substrate; read-out: Cyp IC50 2C9
# Outline: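 Human CYP activity was followed by the fluorescence of the metabolized product of a known substrate, which falls as metabolism is inhibited. Compounds from 100 mM DMSO stocks were serially diluted 1:1 over 10 points in co-factor mix and preincubated 10 min at 37 °C. IC50 was fitted from signal versus concentration.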
# [2] = test system: SW620 colon adenocarcinoma cells (wild-type B-RAF); assay: SW620 cell growth inhibition (ATPlite); assay type: cell-based; conditions: Homo sapiens, SW-620, 72 h; SW620, 3 days incubation
# Outline: (§1)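 Cells plated overnight, then exposed 3 days at 37° C to 8-point 1:3 compound dilutions topping at 10 μM final. Viability read as ATPlite luminescence, proportional to cell number; IC50 from luminescence versus concentration.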
# [3] = test system: COLO205 colon adenocarcinoma cells (B-Raf V600E); assay: COLO205 cell growth inhibition (ATPlite); assay type: cell-based; conditions: Homo sapiens, COLO 205, 72 h; COLO205, 3 days incubation
# Outline: as §1
# [4] = target: B-Raf (Homo sapiens, UniProt P15056); assay: B-Raf biochemical kinase inhibition (AlphaScreen, biotin-MEK1 substrate); conditions: 100 μM ATP
# Chain of B-Raf (P15056 whole entry): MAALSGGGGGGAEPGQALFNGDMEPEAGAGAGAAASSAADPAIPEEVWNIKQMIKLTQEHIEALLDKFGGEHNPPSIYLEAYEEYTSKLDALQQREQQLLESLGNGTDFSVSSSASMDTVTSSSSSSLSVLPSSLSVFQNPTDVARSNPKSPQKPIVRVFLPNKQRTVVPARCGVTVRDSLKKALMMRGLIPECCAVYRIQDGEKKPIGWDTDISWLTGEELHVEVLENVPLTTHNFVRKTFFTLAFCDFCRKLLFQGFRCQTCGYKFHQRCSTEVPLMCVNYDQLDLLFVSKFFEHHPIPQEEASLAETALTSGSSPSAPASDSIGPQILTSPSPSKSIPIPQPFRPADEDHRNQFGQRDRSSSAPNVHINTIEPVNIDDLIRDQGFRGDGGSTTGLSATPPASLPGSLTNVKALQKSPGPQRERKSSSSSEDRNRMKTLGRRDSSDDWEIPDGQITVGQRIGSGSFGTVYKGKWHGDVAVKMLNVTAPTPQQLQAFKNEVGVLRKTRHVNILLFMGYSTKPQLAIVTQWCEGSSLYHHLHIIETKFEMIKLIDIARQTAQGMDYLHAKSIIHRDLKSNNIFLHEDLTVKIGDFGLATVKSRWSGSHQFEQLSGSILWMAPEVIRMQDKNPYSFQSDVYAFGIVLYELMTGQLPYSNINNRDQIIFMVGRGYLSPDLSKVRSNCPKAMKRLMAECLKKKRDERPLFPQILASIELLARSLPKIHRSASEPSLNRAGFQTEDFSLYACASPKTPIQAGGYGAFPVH
# Outline: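 Raf kinases phosphorylating biotin-MEK1, reaction started with ATP at 100 μM final. Compounds tested at 8 points by serial dilution from a 0.1 mM DMSO stock.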
# Chain of CYP2C9 (P11712 whole entry): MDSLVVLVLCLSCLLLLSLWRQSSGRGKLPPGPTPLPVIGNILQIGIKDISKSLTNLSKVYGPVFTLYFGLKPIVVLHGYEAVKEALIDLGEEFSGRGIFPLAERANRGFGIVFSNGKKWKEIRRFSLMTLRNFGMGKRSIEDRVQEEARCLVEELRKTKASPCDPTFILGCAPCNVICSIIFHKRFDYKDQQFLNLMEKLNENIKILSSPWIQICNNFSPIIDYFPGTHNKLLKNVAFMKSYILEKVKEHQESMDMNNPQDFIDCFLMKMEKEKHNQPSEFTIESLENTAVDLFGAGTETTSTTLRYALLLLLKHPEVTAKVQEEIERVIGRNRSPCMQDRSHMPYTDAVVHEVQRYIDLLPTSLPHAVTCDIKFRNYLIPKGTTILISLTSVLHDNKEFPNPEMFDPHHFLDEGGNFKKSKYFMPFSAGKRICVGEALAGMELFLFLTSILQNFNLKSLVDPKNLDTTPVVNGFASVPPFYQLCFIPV
smiles,measurement,setting,value
"CCCS(=O)(=O)Nc1ccc(F)c(C(=O)c2c[nH]c3ncc(-c4ccc(N(C)C)nc4)cc23)c1F [P-2229, Propane-1-sulfonic acid {3-[5-(6-dimethylamino-pyridin-3-yl)-1H-pyrrolo[2,3-b]pyridine-3-carbonyl]-2,4-difluoro-phenyl}-amide]",pIC50,[1],5.00 to 5.30
same,pIC50,[2],< 5.00
same,pIC50,[3],> 7.00
same,pIC50,[4],> 7.00
